According to ChEMBL document CHEMBL1136131, “Synthesis of poly(ethylene glycol) with sulfadiazine and chlorambucil end groups and investigation of its antitumor activity” (Bioorg Med Chem Lett, 2003):

Assay: Acute toxicity in mice
Conditions: mouse, in vivo

Work on O=C(O)CCCc1ccc(N(CCCl)CCCl)cc1 [CHLORAMBUCIL] yielded an LD50 of 49.54 mg⁻¹ kg⁻¹.
